In US20190136321A1, “USE OF TRANSLATIONAL PROFILING TO IDENTIFY TARGET MOLECULES FOR THERAPEUTIC TREATMENT” (The Regents of The University of California, priority 2013, published 2019):

System: SW620 cells
Test: Ribosome profiling of SW620 cells (transcription, translational rate, translational efficiency)
Assay type: cell-based, human
Details: 8 hours
Protocol: SW620 human colon cancer cells were cultured in DMEM media supplemented with penicillin G (100 U/ml), streptomycin (100 μg/ml), and 10% FBS in a humidified atmosphere of 5% CO2 maintained at 37° C.
SW620 cells (ATCC, passage 12) were seeded at about 75% confluence 24 hrs prior to drug treatment. […] About 6×10^6 cells/10 cm plate and about 1×10^6 cells/well of a 6-well plate were harvested for ribosome profiling and Western blot analysis, respectively, following drug treatment.

With `CC(=O)Nc1cccc(-n2c(=O)n(C3CC3)c(=O)c3c(Nc4ccc(I)cc4F)n(C)c(=O)c(C)c32)c1` [GSK212] the “Profile TE” value (gene ARID5A, 250 nM) was −0.4 log2 MEKi/DMSO, the Profile rna (gene ARID5A, 250 nM) was −0.5 log2 MEKi/DMSO and the Profile rpf (gene ARID5A, 250 nM) was −0.9 log2 MEKi/DMSO. The “Profile TE” value (gene B4GALT6, 250 nM) was 0.0 log2 MEKi/DMSO, the Profile rna (gene B4GALT6, 250 nM) was 0.0 log2 MEKi/DMSO and the Profile rpf (gene B4GALT6, 250 nM) was −0.1 log2 MEKi/DMSO. For the same molecule, the “Profile TE” value (gene BXDC2/BRIX1, 250 nM) was 0.2 log2 MEKi/DMSO, the Profile rna (gene BXDC2/BRIX1, 250 nM) was −1.1 log2 MEKi/DMSO and the Profile rpf (gene BXDC2/BRIX1, 250 nM) was −0.8 log2 MEKi/DMSO. The “Profile TE” value (gene BYSL, 250 nM) was 0.2 log2 MEKi/DMSO, the Profile rna (gene BYSL, 250 nM) was −0.8 log2 MEKi/DMSO and the Profile rpf (gene BYSL, 250 nM) was −0.6 log2 MEKi/DMSO. The “Profile TE” value (gene CCND1, 250 nM) was −0.3 log2 MEKi/DMSO, the Profile rna (gene CCND1, 250 nM) was −1.8 log2 MEKi/DMSO and the Profile rpf (gene CCND1, 250 nM) was −2.0 log2 MEKi/DMSO. The “Profile TE” value (gene CD3EAP, 250 nM) was −0.5 log2 MEKi/DMSO, the Profile rna (gene CD3EAP, 250 nM) was −0.6 log2 MEKi/DMSO and the Profile rpf (gene CD3EAP, 250 nM) was −1.1 log2 MEKi/DMSO. For the same molecule, the “Profile TE” value (gene CHSY1, 250 nM) was −0.7 log2 MEKi/DMSO, the Profile rna (gene CHSY1, 250 nM) was 0.0 log2 MEKi/DMSO and the Profile rpf (gene CHSY1, 250 nM) was −0.7 log2 MEKi/DMSO. The “Profile TE” value (gene DDX21, 250 nM) was −0.6 log2 MEKi/DMSO, the Profile rna (gene DDX21, 250 nM) was −0.3 log2 MEKi/DMSO and the Profile rpf (gene DDX21, 250 nM) was −1.0 log2 MEKi/DMSO. For the same molecule, the “Profile TE” value (gene DUSP4, 250 nM) was −0.4 log2 MEKi/DMSO, the Profile rna (gene DUSP4, 250 nM) was −2.0 log2 MEKi/DMSO and the Profile rpf (gene DUSP4, 250 nM) was −2.4 log2 MEKi/DMSO. The “Profile TE” value (gene DUSP6, 250 nM) was −3.1 log2 MEKi/DMSO, the Profile rna (gene DUSP6, 250 nM) was −6.3 log2 MEKi/DMSO and the Profile rpf (gene DUSP6, 250 nM) was −9.3 log2 MEKi/DMSO. The “Profile TE” value (gene EGR1, 250 nM) was −3.1 log2 MEKi/DMSO, the Profile rna (gene EGR1, 250 nM) was −1.0 log2 MEKi/DMSO and the Profile rpf (gene EGR1, 250 nM) was −4.1 log2 MEKi/DMSO. For the same molecule, the “Profile TE” value (gene ELOVL6, 250 nM) was 0.6 log2 MEKi/DMSO, the Profile rna (gene ELOVL6, 250 nM) was −1.4 log2 MEKi/DMSO and the Profile rpf (gene ELOVL6, 250 nM) was −0.8 log2 MEKi/DMSO. The Profile rna (gene ETV1, 250 nM) was −3.5 log2 MEKi/DMSO, the “Profile TE” value (gene ETV4, 250 nM) was −0.6 log2 MEKi/DMSO and the Profile rna (gene ETV4, 250 nM) was −2.2 log2 MEKi/DMSO. The Profile rpf (gene ETV4, 250 nM) was −2.8 log2 MEKi/DMSO, the “Profile TE” value (gene ETV5, 250 nM) was −3.0 log2 MEKi/DMSO and the Profile rna (gene ETV5, 250 nM) was −2.6 log2 MEKi/DMSO. The Profile rpf (gene ETV5, 250 nM) was −5.6 log2 MEKi/DMSO, the “Profile TE” value (gene FLJ10534/TSR1, 250 nM) was −0.6 log2 MEKi/DMSO and the Profile rna (gene FLJ10534/TSR1, 250 nM) was −0.3 log2 MEKi/DMSO. The Profile rpf (gene FLJ10534/TSR1, 250 nM) was −0.8 log2 MEKi/DMSO, the “Profile TE” value (gene FOS, 250 nM) was 0.2 log2 MEKi/DMSO and the Profile rna (gene FOS, 250 nM) was −2.9 log2 MEKi/DMSO. The Profile rpf (gene FOS, 250 nM) was −2.7 log2 MEKi/DMSO, the “Profile TE” value (gene FOSL1, 250 nM) was −0.5 log2 MEKi/DMSO and the Profile rna (gene FOSL1, 250 nM) was −3.6 log2 MEKi/DMSO. The Profile rpf (gene FOSL1, 250 nM) was −4.1 log2 MEKi/DMSO, the “Profile TE” value (gene GEMIN4, 250 nM) was −0.5 log2 MEKi/DMSO and the Profile rna (gene GEMIN4, 250 nM) was −0.1 log2 MEKi/DMSO. For the same molecule, the Profile rpf (gene GEMIN4, 250 nM) was −0.6 log2 MEKi/DMSO, the “Profile TE” value (gene GNL3, 250 nM) was −0.2 log2 MEKi/DMSO and the Profile rna (gene GNL3, 250 nM) was −0.7 log2 MEKi/DMSO. For the same molecule, the Profile rpf (gene GNL3, 250 nM) was −0.8 log2 MEKi/DMSO, the Profile rpf (gene GPR3, 250 nM) was −2.8 log2 MEKi/DMSO and the “Profile TE” value (gene GTPBP4, 250 nM) was −0.3 log2 MEKi/DMSO. For the same molecule, the Profile rna (gene GTPBP4, 250 nM) was −0.4 log2 MEKi/DMSO, the Profile rpf (gene GTPBP4, 250 nM) was −0.7 log2 MEKi/DMSO and the “Profile TE” value (gene HMGA2, 250 nM) was 1.2 log2 MEKi/DMSO. The Profile rna (gene HMGA2, 250 nM) was −2.9 log2 MEKi/DMSO, the Profile rpf (gene HMGA2, 250 nM) was −1.7 log2 MEKi/DMSO and the “Profile TE” value (gene HSPC111/NOP16, 250 nM) was 0.6 log2 MEKi/DMSO. For the same molecule, the Profile rna (gene HSPC111/NOP16, 250 nM) was −1.5 log2 MEKi/DMSO, the Profile rpf (gene HSPC111/NOP16, 250 nM) was −0.9 log2 MEKi/DMSO and the “Profile TE” value (gene IER3, 250 nM) was −0.1 log2 MEKi/DMSO. For the same molecule, the Profile rna (gene IER3, 250 nM) was −2.2 log2 MEKi/DMSO, the Profile rpf (gene IER3, 250 nM) was −2.3 log2 MEKi/DMSO and the “Profile TE” value (gene IL8, 250 nM) was 2.4 log2 MEKi/DMSO. For the same molecule, the Profile rna (gene IL8, 250 nM) was −5.6 log2 MEKi/DMSO and the Profile rpf (gene IL8, 250 nM) was −3.2 log2 MEKi/DMSO.
